Test results as given in publication PMC6445166, “Subnanomolar indazole-5-carboxamide inhibitors of monoamine oxidase B (MAO-B) continued: indications of iron binding, experimental evidence for optimised solubility and brain penetration” (Journal of Enzyme Inhibition and Medicinal Chemistry, 2017).
Values joined by “and” are separate entries in the source; they are usually repeats but may differ in a detail not shown here. Equal values may be shown once. Read-outs that look alike come from different tables or passages of the source.

Experiments:
[1] = Solubility studies (HPLC-UV/ESI-MS; kinetic solubility); type: physicochemical; conditions: measured, solubility in mol/L at pH 7.4 in 60 mM phosphate buffer or pure water at rt; for solubility: 60 mM phosphate buffer or pure water, pH 7.4, aqueous buffer, read-out: logS7.4
[2] = Octanol-water distribution coefficient (logD); conditions: for logD7.4: measured, pH 7.4 in 60 mM phosphate buffer at rt
[3] = Chemical stability in phosphate buffer; type: physicochemical; conditions: chemical stability in 10 mM phosphate buffer at pH 7.4; 60 days at room temperature
Experimental: The purity and solubility of the compounds was determined by an analytical HPLC-UV method using an LC-MS instrument (Applied Biosystems API 2000 LC/ESI-MS; HPLC Agilent 1100 binary pump system) coupled with a diode array detector (DAD) with an UV absorption in the range from 220 to 400 nm. Mass spectra were recorded on an API 2000 mass spectrometer equipped with an electrospray ion source (ESI) by using triple ion quadrupole (TIC) with an alternating full scan detection in positive (+Q) and/or negative (-Q) mode. As mobile phases for the different analytical LC methods were used methanol (Sigma-Aldrich, Chromasolv LC-MS grade), ammonium acetate (2.0 mM) and water Purelab flex.
500 µL of a 10 mM compound stock solution in DMSO, ACN or MeOH was added to a 2.0 mL HPLC glass vial containing 500 µL phosphate buffer (10 mM, pH 7.4) and sonicated for 60 sec. The sample was shaken at 37 °C for 2 hours and then left for 60 days at room temperature under light exposure. The chemical stability of compounds was checked by UV-visible spectroscopy (Figure S1).

hMAO-B [4] = molecular target: T1, hMAO-B (Homo sapiens, UniProt P27338); assay: MAO-B kinetic experiments (Lineweaver-Burk); type: biochemical; parameters: purchased Sigma-Aldrich M7441; host or cells: baculovirus-infected BTI-TN-5B1-4 insect cells (microsomes); conditions: 0.5 and 1.0 nM inhibitor, varied p-tyramine
T1 sequence (P27338 1-520): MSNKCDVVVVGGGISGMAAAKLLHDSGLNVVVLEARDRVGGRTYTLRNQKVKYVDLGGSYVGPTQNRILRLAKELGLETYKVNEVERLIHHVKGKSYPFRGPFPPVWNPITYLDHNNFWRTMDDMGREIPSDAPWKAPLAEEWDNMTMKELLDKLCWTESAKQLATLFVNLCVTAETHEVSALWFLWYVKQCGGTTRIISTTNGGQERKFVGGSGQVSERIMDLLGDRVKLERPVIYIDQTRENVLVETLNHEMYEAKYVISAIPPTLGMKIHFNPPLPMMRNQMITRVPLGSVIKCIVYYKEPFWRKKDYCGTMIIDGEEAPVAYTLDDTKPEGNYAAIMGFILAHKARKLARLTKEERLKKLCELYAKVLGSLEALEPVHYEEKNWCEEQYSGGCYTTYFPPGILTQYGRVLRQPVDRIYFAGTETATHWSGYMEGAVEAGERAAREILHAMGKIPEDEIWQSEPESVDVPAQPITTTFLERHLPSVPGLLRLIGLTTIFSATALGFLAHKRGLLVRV

hMAO-B [5] = molecular target: T1, hMAO-B; conditions: at IC80: NTZ compounds 1.0 nM, selegiline 30 nM, safinamide 50 nM; p-tyramine raised to 1.0 mM after 22 min
[6] = Solubility studies (HPLC-UV/ESI-MS; kinetic solubility); type: physicochemical; conditions: thermodynamic from solid
Experimental: Solid […]
samples of compounds (2–4 mg) were weighed and serial diluted in 1.0 mL either of water (Purelab flex) or water-methanol (1:1). A precisely weighed sample of the respective compound in methanol (1.0 ± 0.05 mg/mL) was used as a reference. A blank solution without detectable analyte was used for instrument calibration for each experiment. The suspensions were mixed on a vortex for 5 min, sonicated for 1 h, and then shaken over night at rt. After that, the samples were left for 1 h at rt and then filtered through a 0.45 µm filter. Aliquots (10 µL) of each sample were injected into the HPLC/ESI-MS system (Applied
(1 picture or pasted object on this page, not shown here)
Biosystems API 2000 ESI-MS, HPLC Agilent 1100 binary pump system) equipped with a Phenomenex Luna C18 reverse phase column and subsequently measured by chromatographic procedure (DAD detection) with mass conformation (MS scan in positive and negative mode). The mass scan method was adapted for each tested compound depending on its limit of detection (LOD) and physicochemical properties (Table S1, Figure S2). The solubility of the compounds was calculated by Analyst software v.
1.5.1 (AB Sciex Pte. Ltd.) using one point calibration after subtraction the absorbance of the blank solution from the total analyte peak area measured for each sample in the experiments. To verify the results, an equimolar mixture (each in a concentration equal to 1.0 mg/mL) of the compounds in methanol was prepared and measured under the same conditions as described above (see Figure 4A). All experiments were performed in triplicate with at least three analytical runs for each sample.
The solubility data for tested compounds, obtained from the different analytical techniques, are […]
Table S1. Solubility data for selected compounds.
Compd. Methoda Solubility in 50% methanolb Solubility in waterb […]
a Method of detection: HPLC-UV method 1 (DAD), HPLC/ESI-MS method 2 (+Q/–Q scan: +MI+H+/– MI–H–). b The values are the mean ± SD (n ≥ 3).

[7] = PAMPA-BBB permeability assay; conditions: for PAMPA-BBB −logPe: 4 h under stirring, Prisma HT buffer; for CNS+/– Prediction: from PAMPA-BBB permeability, limit for BBB permeation Pe > 4.0 × 10^−6 cm/s
human recombinant MAO-A = molecular target: T2, human recombinant MAO-A (Homo sapiens, UniProt P21397); type: biochemical
T2 construct: purchased Sigma-Aldrich M7316; host or cells: baculovirus-infected BTI-TN-5B1-4 insect cells (microsomes)
T2 sequence (P21397 1-527): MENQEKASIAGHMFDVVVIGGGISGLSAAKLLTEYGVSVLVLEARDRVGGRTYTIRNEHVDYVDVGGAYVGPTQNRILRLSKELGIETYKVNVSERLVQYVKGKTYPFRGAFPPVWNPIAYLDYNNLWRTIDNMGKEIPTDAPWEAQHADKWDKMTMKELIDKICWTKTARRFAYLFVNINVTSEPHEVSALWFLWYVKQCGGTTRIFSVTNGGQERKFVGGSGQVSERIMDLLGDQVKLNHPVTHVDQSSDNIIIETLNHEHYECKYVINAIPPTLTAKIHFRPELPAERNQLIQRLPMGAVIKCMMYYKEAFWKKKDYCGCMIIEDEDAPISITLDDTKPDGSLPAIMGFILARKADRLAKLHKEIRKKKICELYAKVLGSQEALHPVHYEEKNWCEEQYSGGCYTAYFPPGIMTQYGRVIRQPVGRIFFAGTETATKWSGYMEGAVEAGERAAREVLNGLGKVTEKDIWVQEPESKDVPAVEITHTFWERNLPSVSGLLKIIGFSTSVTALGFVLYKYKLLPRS

[8] = PAMPA-BBB standard drugs; cited from earlier work
[9] = PAMPA
[10] = pure water (Purelab flex), water, method 1: HPLC-UV (DAD), read-out: Solubility in water Sw
[11] = pure water (Purelab flex), water, method 1: HPLC-UV (DAD), read-out: Solubility in water logSw
[12] = pure water (Purelab flex), water, method 2: HPLC/ESI-MS, read-out: Solubility in water logSw
[13] = pure water (Purelab flex), water, pure water, mean ± SD (n ≥ 3), read-out: Solubility in water
[14] = water-methanol (1:1), aqueous with cosolvent or surfactant or cyclodextrin, mean ± SD (n ≥ 3), read-out: Solubility in 50% methanol
[15] = water-methanol (1:1), aqueous with cosolvent or surfactant or cyclodextrin, method 1: HPLC-UV (DAD), read-out: Solubility in 50% methanol S
[16] = water-methanol (1:1), aqueous with cosolvent or surfactant or cyclodextrin, method 1: HPLC-UV (DAD), read-out: Solubility in 50% methanol logS
[17] = water-methanol (1:1), aqueous with cosolvent or surfactant or cyclodextrin, method 2: HPLC/ESI-MS, read-out: Solubility in 50% methanol logS
[18] = pure water (Purelab flex), water, method 2: HPLC/ESI-MS, read-out: Solubility in water Sw
[19] = water-methanol (1:1), aqueous with cosolvent or surfactant or cyclodextrin, method 2: HPLC/ESI-MS, read-out: Solubility in 50% methanol S
[20] = PAMPA-BBB validation with standard drugs

| SMILES | mode of interaction with hMAO-B (reversible or irreversible) (hMAO-B [5]) | solubility [6, 10] | solubility [6, 11] | solubility [6, 12] | solubility [6, 13] | solubility [6, 14] | solubility [6, 15] | solubility [6, 16] | solubility [6, 17] | PAMPA-BBB −logPe [7] | Papp at 4 h, 10 µM ([7]; PAMPA, pH 7.4) | logS7.4 [1] | Stability [3] | Reported –logPe [8] | further results |
| --- | --- | --- | --- | --- | --- | --- | --- | --- | --- | --- | --- | --- | --- | --- | --- |
| O=C(Nc1ccc(F)c(F)c1)c1ccc2[nH]ncc2c1 [NTZ-1034] | – | – | – | – | – | – | – | – | – | – | – | −4.22 | Stable | – | logD7.4 [2]: 2.04 |
| O=C(Nc1ccc(Cl)c(Cl)c1)c1ccc2[nH]ncc2c1 [NTZ-1006] | reversible inhibitors of hMAO-B | – | – | – | – | – | – | – | – | – | – | – | Stable | – | IC50 (human recombinant MAO-A): > 10 µM |
| CC(=O)[C@H]1CC[C@H]2[C@@H]3CCC4=CC(=O)CC[C@]4(C)[C@H]3CC[C@]12C [Progesterone, reference compound] | – | – | – | – | – | – | – | – | – | – | – | – | – | 3.7 ± 0.25 | Papp at 4 h ([7]; PAMPA, pH 7.4): 55.2 ± 0.02 ×10⁻⁶ cm/s; Experiment –logPe [7, 20]: 4.26 ± 0.00; CNS+/– Prediction [7]: CNS+ |
| O=C(Nc1ccc(F)c(Cl)c1)c1ccc2[nH]ncc2c1 [NTZ-1032] | – | – | – | – | – | – | – | – | – | – | – | – | Stable | – | – |
| Cn1c(=O)c2[nH]cnc2n(C)c1=O [Theophylline] | – | – | – | – | – | – | – | – | – | – | – | – | – | > 6.0 ± 0.25 | – |
| C[C@H](NCc1ccc(OCc2cccc(F)c2)cc1)C(N)=O [Safinamide, reference compound] | reversible | – | – | – | – | – | – | – | – | – | – | – | – | – | – |
| CC(C)NCC(O)COc1cccc2ccccc12.Cl (stereo not shown) [Propranolol HCl, reference compound] | – | – | – | – | – | – | – | – | – | – | – | – | – | 4.1 ± 0.25 | CNS+/– Prediction [9]: CNS+; Experiment Pe [7, 20]: 98.7 ± 9.96 10-6 cm/s; Experiment –logPe [7, 20]: 4.01 ± 0.04 |
| Cn1ncc2cc(C(=O)Nc3ccc(F)c(Cl)c3)ccc21 [NTZ-1441] | – | 10.6 µg/mL and 34.9 µM | 34.7 µM | 135 µM | 42.1 µg/mL and 136 µM | 609 µg/mL and 2040 µM | 663 µg/mL and 2190 µM | 2190 µM | 2040 µM | 3.84 | 144 ± 3.4 ×10⁻⁶ cm/s | −3.87 | Stable | – | solubility [1]: > 100 µM; logD7.4 [2]: 2.19; logD ([2]; octanol/water, pH 7.4): < 3; solubility [6, 18]: 136 ± 5.16 µM; solubility [6, 19]: 609 ± 48.7 µg/mL |

Continued, in another order:

| mode of interaction with hMAO-B (reversible or irreversible) (hMAO-B [5]) | solubility [6, 10] | solubility [6, 11] | solubility [6, 12] | solubility [6, 13] | solubility [6, 14] | solubility [6, 15] | solubility [6, 16] | solubility [6, 17] | PAMPA-BBB −logPe [7] | Papp at 4 h, 10 µM ([7]; PAMPA, pH 7.4) | SMILES | logS7.4 [1] | Stability [3] | Reported –logPe [8] | further results |
| --- | --- | --- | --- | --- | --- | --- | --- | --- | --- | --- | --- | --- | --- | --- | --- |
| reversible inhibitors of hMAO-B | 0.75 µg/mL and 2.36 µM | 2.34 µM | 17.8 µM | 5.62 µg/mL and 17.6 µM | 156 µg/mL and 490 µM | 105 µg/mL and 300 µM | 331 µM | 447 µM | 3.91 | 118 ± 6.4 ×10⁻⁶ cm/s | Cn1ncc2cc(C(=O)Nc3ccc(Cl)c(Cl)c3)ccc21 [NTZ-1091] | −4.75 | Stable | – | type of hMAO-B inhibition (Lineweaver–Burk) (hMAO-B [4]): linear and intersected at the Y-axis |
| – | 10.4 µg/mL and 36.3 µM | 38.9 µM | 214 µM | 61.6 µg/mL and 215 µM | 610 µg/mL and 2120 µM | 631 µg/mL and 2180 µM | 2190 µM | 2140 µM | 3.83 | 148 ± 2.4 ×10⁻⁶ cm/s | Cn1ncc2cc(C(=O)Nc3ccc(F)c(F)c3)ccc21 [NTZ-1471] | −3.67 | Stable | – | solubility [1]: > 100 µM; solubility [6, 18]: 214 ± 33.3 µM; solubility [6, 19]: 610 ± 26.2 µg/mL; CNS+/– Prediction [7]: CNS+ |
